Assay results reported in ChEMBL document CHEMBL1135843, “A library construction of 2,5-disubstituted pyrrole compounds by using solid/solution-phase syntheses” (Bioorg Med Chem Lett, 2002).
pIC50: −log10 of the molar value.

Legend:
Type in all cases: functional
[1] = Inhibition of LPS-induced mouse B-lymphocyte proliferation. The result is expressed as relative IC50 i.e., IC50 of compound/all-trans retinoic acid IC50.
[2] = Inhibition of LPS-induced mouse B-lymphocyte proliferation in relation to IC50 of all-trans retinoic acid.
[3] = Compound was evaluated for its inhibition of LPS-induced mouse B-lymphocyte proliferation
[4] = Compound was evaluated for its inhibition of LPS-induced mouse B-lymphocyte proliferation. The result is expressed as relative IC50 i.e., IC50 of compound / All Trans Retinoic Acid IC50

Compound | Relative IC50 [1] | Relative IC50 [2] | other results
CCCc1cccc2cc(-c3ccc(-c4ccc(C(=O)O)s4)[nH]3)sc12 | 600 |  | 
CCc1ccc(OC)c2cc(-c3ccc(-c4ccc(C(=O)O)o4)[nH]3)oc12 |  | >1000 | 
Cc1ccc(C)c2oc(-c3ccc(-c4ccc(C(=O)O)cc4Br)[nH]3)cc12 | 18 |  | 
O=C(O)c1ccc2cc(-c3ccc(-c4cc5c(Cl)ccc(Cl)c5s4)[nH]3)ccc2c1 |  | >1000 | 
Cc1cc(C)c2oc(-c3ccc(-c4ccc(C(=O)O)cc4)[nH]3)cc2c1C |  |  | pIC50 [3]: 8.66
O=C(O)c1ccc(-c2ccc(-c3cc4cc(Cl)ccc4o3)[nH]2)s1 |  | >1000 | 
Cc1ccc(C)c2oc(-c3ccc(-c4ccc(C(=O)O)cc4F)[nH]3)cc12 | 15 |  | 
Cc1ccc(C)c2oc(-c3ccc(-c4cccc(C(=O)O)c4)[nH]3)cc12 | 2100 |  | 
CCCc1ccc(OC)c2cc(-c3ccc(-c4ccc(C(=O)O)o4)[nH]3)oc12 |  | >1000 | 
Cc1cc(-c2ccc(-c3cc4cc(Cl)cc(Cl)c4o3)[nH]2)c(C)cc1C(=O)O |  | >1000 | 
COc1cc(C(=O)O)ccc1-c1ccc(-c2cc3c(Cl)ccc(Cl)c3o2)[nH]1 | 210 |  | 
O=C(O)c1ccc(-c2ccc(-c3cc4cc(Cl)ccc4o3)[nH]2)c2ccccc12 |  | >1000 | 
O=C(O)c1ccc(-c2ccc(-c3cc4c(Cl)ccc(Cl)c4s3)[nH]2)c2ccccc12 |  | >1000 | 
CCc1ccc(OC)c2cc(-c3ccc(-c4ccc(C(=O)O)s4)[nH]3)oc12 |  | >1000 | 
O=C(O)c1ccc(-c2ccc(-c3cc4c(Cl)ccc(Cl)c4o3)[nH]2)c(Cl)c1 | 240 |  | 
CCc1ccc(OC)c2cc(-c3ccc(-c4ccc(C(=O)O)c5ccccc45)[nH]3)oc12 |  | >1000 | 
Cc1ccc(Cl)c2sc(-c3ccc(-c4ccc(C(=O)O)c5ccccc45)[nH]3)cc12 |  | >1000 | 
Cc1ccc(Cl)c2oc(-c3ccc(-c4ccc5cc(C(=O)O)ccc5c4)[nH]3)cc12 |  | >1000 | 
CCCc1ccc(OC)c2cc(-c3ccc(-c4cc(C)c(C(=O)O)cc4C)[nH]3)oc12 |  | >1000 | 
O=C(O)c1ccc(-c2ccc(-c3cc4c(Cl)ccc(Cl)c4o3)[nH]2)c(Br)c1 | 45 |  | 

Compound | Relative IC50 [1] | Relative IC50 [2] | other results
O=C(O)c1ccc(-c2ccc(-c3cc4ccc5ccccc5c4o3)[nH]2)c(Br)c1 | 1500 |  | 
CCCc1cccc2cc(-c3ccc(-c4ccc5cc(C(=O)O)ccc5c4)[nH]3)oc12 |  | >1000 | 
CCCc1ccc(OC)c2cc(-c3ccc(-c4ccc(C(=O)O)s4)[nH]3)oc12 |  | >1000 | 
Cc1ccc(C)c2oc(-c3ccc(-c4ccc(C(=O)O)c5ccccc45)[nH]3)cc12 |  | >1000 | 
Cc1ccc(C)c2oc(-c3ccc(-c4ccc(C(=O)O)s4)[nH]3)cc12 | 42 |  | 
CCc1ccc(OC)c2cc(-c3ccc(-c4cc(C)c(C(=O)O)cc4C)[nH]3)oc12 |  | >1000 | 
O=C(O)c1ccc(-c2ccc(-c3cc4c(Cl)ccc(Cl)c4o3)[nH]2)cc1 |  |  | Relative IC50 [4]: 1.3
Cc1ccc(C)c2oc(-c3ccc(-c4ccc(C(=O)O)o4)[nH]3)cc12 |  | >1000 | 
CCc1ccc(OC)c2cc(-c3ccc(-c4ccc(C(=O)O)cc4Br)[nH]3)oc12 | 140 |  | 
Cc1ccc(C)c2oc(-c3ccc(-c4ccc(C(=O)O)cc4)[nH]3)cc12 |  |  | Relative IC50 [4]: 0.76
Cc1cc(C)c2oc(-c3ccc(-c4ccc(C(=O)O)cc4Br)[nH]3)cc2c1C | 42 |  | 
Cc1ccc(Cl)c2sc(-c3ccc(-c4ccc(C(=O)O)s4)[nH]3)cc12 | 480 |  | 
O=C(O)c1ccc(-c2ccc(-c3cc4cc(Cl)ccc4o3)[nH]2)o1 |  | >1000 | 
Cc1ccc(Cl)c2oc(-c3ccc(-c4ccc(C(=O)O)cc4Br)[nH]3)cc12 | 16 |  | 
O=C(O)c1ccc(-c2ccc(-c3cc4cccc(Cl)c4o3)[nH]2)c(Cl)c1 | 300 |  | 
O=C(O)c1ccc(-c2ccc(-c3cc4c(Cl)ccc(Cl)c4o3)[nH]2)s1 | 62 |  | 
Cc1ccc(C)c2oc(-c3ccc(-c4ccc5cc(C(=O)O)ccc5c4)[nH]3)cc12 |  | >1000 | 
Cc1cc(C)c2oc(-c3ccc(-c4ccc(C(=O)O)s4)[nH]3)cc2c1C | 230 |  | 
Cc1cc(C)c2oc(-c3ccc(-c4ccc(C(=O)O)c5ccccc45)[nH]3)cc2c1C |  | >1000 | 
CCCc1cccc2cc(-c3ccc(-c4cc(C)c(C(=O)O)cc4C)[nH]3)oc12 |  | >1000 | 

Compound | Relative IC50 [1] | Relative IC50 [2] | other results
O=C(O)c1cccc(-c2ccc(-c3cc4cccc(Cl)c4s3)[nH]2)c1 |  | >1000 | 
O=C(O)c1ccc(-c2ccc(-c3cc4cccc(Cl)c4o3)[nH]2)c(F)c1 | 95 |  | 
Cc1cc(-c2ccc(-c3cc4c(C)c(C)cc(C)c4o3)[nH]2)c(C)cc1C(=O)O |  | >1000 | 
COc1cc(C(=O)O)ccc1-c1ccc(-c2cc3cccc(Cl)c3o2)[nH]1 | 170 |  | 
CCCc1ccc(OC)c2cc(-c3ccc(-c4ccc(C(=O)O)c5ccccc45)[nH]3)oc12 |  | >1000 | 
CCCc1ccc(OC)c2cc(-c3ccc(-c4ccc5cc(C(=O)O)ccc5c4)[nH]3)oc12 |  | >1000 | 
CCc1ccc(OC)c2cc(-c3ccc(-c4ccc5cc(C(=O)O)ccc5c4)[nH]3)oc12 |  | >1000 | 
Cc1cc(C)c2oc(-c3ccc(-c4ccc5cc(C(=O)O)ccc5c4)[nH]3)cc2c1C |  | >1000 | 
O=C(O)c1ccc(-c2ccc(-c3cc4c(Cl)ccc(Cl)c4o3)[nH]2)c(F)c1 | 64 |  | 
CCCc1cccc2cc(-c3ccc(-c4ccc(C(=O)O)c5ccccc45)[nH]3)sc12 |  | >1000 | 
O=C(O)c1ccc(-c2ccc(-c3cc4cccc(Cl)c4o3)[nH]2)c(Br)c1 | 31 |  | 
Cc1ccc(C)c2oc(-c3ccc(-c4ccc(C(=O)O)cc4Cl)[nH]3)cc12 | 23 |  | 
CCCc1cc(OC)cc2cc(-c3ccc(-c4cc(C)c(C(=O)O)cc4C)[nH]3)oc12 |  | >1000 | 
Cc1cc(-c2ccc(-c3cc4cc(Cl)ccc4o3)[nH]2)c(C)cc1C(=O)O |  | >1000 | 
COc1cc(C(=O)O)ccc1-c1ccc(-c2cc3c(C)ccc(C)c3o2)[nH]1 | 47 |  | 
Cc1cc(-c2ccc(-c3cc4c(C)ccc(C)c4o3)[nH]2)c(C)cc1C(=O)O |  | >1000 | 
Cc1cc(C)c2oc(-c3ccc(-c4ccc(C(=O)O)o4)[nH]3)cc2c1C |  | >1000 | 
CC1=C(/C=C/C(C)=C/C=C/C(C)=C/C(=O)O)C(C)(C)CCC1 [TRETINOIN] | 1 |  | Relative IC50 [4]: 0.65
